Where “and” joins values, the source holds several entries; their conditions need not be identical. Identical values can stand only once.
Details: Transpiration method

Oc1cc(Cl)ccc1Cl [2,5-dichlorophenol]
Details	vapor or sublimation pressure [kPa]
294.3 K, Crystal	0.0089
297.3 K, Crystal	0.0122
300.4 K, Crystal	0.0168
303.3 K, Crystal	0.0223
306.3 K, Crystal	0.0302
309.2 K, Crystal	0.0399
312.2 K, Crystal	0.0532
315.2 K, Crystal	0.0708
318.3 K, Crystal	0.0944
321.3 K, Crystal	0.1257
324.4 K, Crystal	0.1636
327.4 K, Crystal	0.2133
333.3 K, Liquid	0.3198
337.2 K, Liquid	0.3996
340.2 K, Liquid	0.4726
343.2 K, Liquid	0.5513
346.2 K, Liquid	0.6514
349.2 K, Liquid	0.7643
352.2 K, Liquid	0.894
355.2 K, Liquid	1.048
358.1 K, Liquid	1.204
361.2 K, Liquid	1.403

Oc1ccc(Cl)c(Cl)c1 [3,4-dichlorophenol]
Details	vapor or sublimation pressure [kPa]
291.4 K, Crystal	0.00027
294.3 K, Crystal	0.0004
300.3 K, Crystal	0.00086
303.5 K, Crystal	0.00121
306.7 K, Crystal	0.00177
309.5 K, Crystal	0.00247
314.3 K, Crystal	0.00423
317.2 K, Crystal	0.00587
320.4 K, Crystal	0.00806
323.3 K, Crystal	0.01069
326.3 K, Crystal	0.01474
329.3 K, Crystal	0.01992
332.3 K, Crystal	0.02618
335.3 K, Crystal	0.03423
337.3 K, Crystal	0.04096
341.3 K, Liquid	0.057
344.3 K, Liquid	0.0703
347.2 K, Liquid	0.0854
350.3 K, Liquid	0.1055
353.2 K, Liquid	0.127
356.3 K, Liquid	0.1544
359.2 K, Liquid	0.1858
362.2 K, Liquid	0.223
365.4 K, Liquid	0.2696
368.4 K, Liquid	0.3217

Oc1c(Cl)c(Cl)c(Cl)c(Cl)c1Cl [pentachlorophenol]
Crystal
Details	vapor or sublimation pressure [kPa]
348.1 K	0.00127
353.1 K	0.00206
358 K	0.00304
363 K	0.00483
367.8 K	0.00681
371.9 K	0.00975
378.1 K	0.01517
383 K	0.02172
388.9 K	0.03268
393.2 K	0.04374
397.8 K	0.06045
399.8 K	0.07143
403.2 K	0.09099

Oc1ccc(Cl)cc1Cl [2,4-dichlorophenol]
Details	vapor or sublimation pressure [kPa]
278.2 K, Crystal	0.00175
283.3 K, Crystal	0.00312
289.3 K, Crystal	0.00626
294.4 K, Crystal	0.01082
297.3 K, Crystal	0.01464
300.4 K, Crystal	0.02025
303.3 K, Crystal	0.02801
306.3 K, Crystal	0.03848
309.4 K, Crystal	0.05208
312.4 K, Crystal	0.06848
315.2 K, Crystal	0.09034
317.2 K, Liquid	0.1061
320.3 K, Liquid	0.1326
323.2 K, Liquid	0.1612
326.1 K, Liquid	0.1933
329.2 K, Liquid	0.2419
332.2 K, Liquid	0.2831
335.2 K, Liquid	0.3393
338.2 K, Liquid	0.4027
341.2 K, Liquid	0.4846
344.2 K, Liquid	0.5835

Oc1c(Cl)cc(Cl)cc1Cl [2,4,6-trichlorophenol]
Details	vapor or sublimation pressure
299.4 K, Crystal	0.00177 kPa
302.3 K, Crystal	0.00245 kPa
305.2 K, Crystal	0.00319 kPa
308.3 K, Crystal	0.0044 kPa
311.3 K, Crystal	0.00593 kPa
314.3 K, Crystal	0.00805 kPa
316.8 K, Crystal	0.01044 kPa and 0.01061 kPa
317.3 K, Crystal	0.01125 kPa
320.3 K, Crystal	0.015 kPa
323.3 K, Crystal	0.02013 kPa
326.3 K, Crystal	0.02645 kPa
329.4 K, Crystal	0.03488 kPa
332.5 K, Crystal	0.04531 kPa
335.5 K, Crystal	0.05882 kPa
338.2 K, Crystal	0.07513 kPa
340.3 K, Crystal	0.08978 kPa
342.8 K, Liquid	0.1027 kPa
343.2 K, Liquid	0.1041 kPa
343.8 K, Liquid	0.1081 kPa
345.2 K, Liquid	0.1191 kPa
346.3 K, Liquid	0.1271 kPa
347.3 K, Liquid	0.1317 kPa
348.3 K, Liquid	0.1419 kPa
348.9 K, Liquid	0.1495 kPa
350.4 K, Liquid	0.1613 kPa
351.4 K, Liquid	0.1716 kPa
353.3 K, Liquid	0.1898 kPa
353.9 K, Liquid	0.1975 kPa
354.4 K, Liquid	0.2102 kPa
356.4 K, Liquid	0.2268 kPa
357.5 K, Liquid	0.2519 kPa
359 K, Liquid	0.2809 kPa
359.4 K, Liquid	0.2784 kPa
360.5 K, Liquid	0.2994 kPa
362.5 K, Liquid	0.3322 kPa
363.2 K, Liquid	0.3412 kPa
364.1 K, Liquid	0.3663 kPa
365.5 K, Liquid	0.3878 kPa
366.3 K, Liquid	0.4095 kPa
368.1 K, Liquid	0.4623 kPa
368.6 K, Liquid	0.463 kPa
369.4 K, Liquid	0.4939 kPa
372.4 K, Liquid	0.5714 kPa
373.2 K, Liquid	0.6103 kPa and 0.6087 kPa
375.4 K, Liquid	0.6794 kPa

Source: the NIST ThermoML archive (doi:10.1021/je060429r)
